Assay results from patent publication US3950525A, “Relaxation of smooth muscle in a mammal” (Pfizer Inc., priority 1975, dated 1976).
Structures can show the parent of a compound that is named as a salt. Where two headings read alike, the source gives them in different places.

Experiments:
[1] = system: collagen induced platelet aggregation; test: In Vivo Inhibition of Platelet Aggregation (collagen induced aggregation in plasma of dosed dogs); set-up: species or system mongrel dogs; settings: 25 mg./kg. P.O.
Method: The capacity of the compounds of the present invention to inhibit platelet aggregation in a modified in vivo test is measured by the following procedure: Unanesthetized fasted adult mongrel dogs of either sex are dosed orally (P.O.) or intravenously (I.V.) with the particular test compound. Blood samples are taken at hourly intervals and placed in plastic centrifuge tubes containing 0.1 volume 3% sodium citrate. Platelet-rich plasma is separated by centrifugation at 100 G for 10 minutes at 20° C. and treated with a collagen suspension in saline. The effect of two different levels of collagen concentration are examined; the first is a 1:20 dilution, i.e. 1 ml. of collagen suspension per 20 ml. of platelet-rich plasma (high dose), and the second, a 1:40-50 dilution (low dose). Changes in optical density are then followed with a Spectronic 20 colorimeter attached to a Houston Instrument TY Recorder. Platelet aggregation is indicated by a decrease in optical density. […] Measurements are carried out on the hourly samples, allowing for the determination of a duration of the initial effect.

[2] = system: collagen induced platelet aggregation; test: In vitro Inhibition of Platelet Aggregation in Human Plasma (collagen induced); assay type: cell-based; settings: human platelet-rich plasma
Method: (§1) Anesthetized male rabbits are bled from a carotid artery into plastic centrifuge tubes containing 0.1 volume 3% sodium citrate. Platelet-rich plasma is separated by centrifugation at 100 G for 10 minutes at 20° C. Plasma from 3 animals is pooled; 5 ml. samples are placed into clear plastic curvettes and stirred at 1000 rpm, followed by the addition of compounds of the present invention at levels of 6 × 10^^-4 , 10^^-5 and 10^^-6 moles/liter. After 10 minutes of incubation with the platelet-rich plasma at room temperature, collagen, a protein known to cause platelet aggregation, is added (0.27 ml. collagen/4 ml. plasma) and changes in the optical density are followed with a Spectronic 20 colorimeter attached to a Houston Instrument TY Recorder. Platelet aggregation is indicated by a decrease in optical density. The relative potency of the compounds of the present invention are thus rated on their ability to inhibit (percent) collagen induced platelet aggregation.
The procedure of Example XLV is repeated except that platelet-rich plasma from nine human volunteers is employed in place of rabbit plasma. 4-(Diethylamino)-6-phenylpyrimidine hydrochloride provides the following inhibition (%) of collagen induced platelet aggregation at the indicated concentrations: […]

[3] = system: collagen induced platelet aggregation; test: In Vitro Inhibition of Platelet Aggregation (collagen induced, rabbit platelet-rich plasma); assay type: cell-based; settings: Oryctolagus cuniculus, 10 min; for inhibition at 600 µM: 6 × 10^^-4 mol./l.; for inhibition at 6 µM: 6 × 10^^-6 mol./l.; for inhibition at 60 µM: 6 × 10^^-5 mol./l.
Method: as §1, with “The ability of the compounds of the present invention to inhibit platelet aggregation in vitro is measured according to the method of Born, et al., J. Physiol., 168, 178 (1963) and comprises the following procedure: Anesthetized” for “Anesthetized”, “Plasma from 3 animals is pooled; 5 ml. samples are placed into clear plastic curvettes and stirred at 1000 rpm, followed by the addition of compounds of the present invention at levels of 6 × 10^^-4 , 10^^-5 and 10^^-6 moles/liter.” left out

[4] = system: histamine aerosol induced bronchoconstriction; test: Bronchodilator Activity (protection of conscious guinea pigs against histamine aerosol); assay type: in vivo; settings: Cavia porcellus, 1 h, read-out: % Protection
Method: Subsequent to this administration, each animal is challenged with histamine aerosol. […] Immediately after the container is subjected to the histamine spray the animal is placed within it. At the end of one minute of exposure, the respiratory status, which is a reflection of bronchoconstriction, is evaluated. Evaluation levels are designated and scored as normal breathing (0), slight deepened breathing (1), labored breathing (2), severely labored breathing and […] (3) and unconsciousness (4). Each group of animals contains 8 to 10 individual and a control group containing the same approximate number is used. […] The dose, which is given orally, is 60 mg./kg. and the animals are challenged with histamine 60 minutes later.

[5] = 60 mg./kg. oral, histamine challenge 60 minutes later

In the case of `CCN(CC)c1cc(-c2ccccc2)ncn1.Cl` [Ar=C6H5; R1=C2H5; R2=C2H5; R3=H, 4-Diethylamino-6-phenylpyrimidine hydrochloride], the Duration [1] is reported as 5 h, the “Inhibition to Collagen, High” value ([1]; high collagen (1:20 dilution)) is reported as “Complete (complete (95-100%))” and the “Inhibition to Collagen, Low” value ([1]; low collagen (1:40-50 dilution)) is reported as “Complete (complete (95-100%))”. For the same compound, the “Mean % Inhibition” value ([2]; 6 × 10^^-4 mol./l.) was 73%, the “Mean % Inhibition” value ([2]; 6 × 10^^-5 mol./l.) was 59% and the “Mean % Inhibition” value ([2]; 6 × 10^^-6 mol./l.) was 52%. The “Mean % Inhibition” value ([2]; 6 × 10^^-7 mol./l.) was 15%, the inhibition at 600 µM [3] was 99% and the inhibition at 6 µM [3] was 99%.
`CCC(=O)Nc1cccc(-c2cc(N(CC)CC)ncn2)c1` [4-diethylamino-6-(m-propionylaminophenyl)pyrimidine] showed an inhibition in vivo at 60 mg/kg [4, 5] of 30%, an inhibition at 600 µM [3] of 99% and an inhibition at 60 µM [3] of 82%. For the same compound, the inhibition at 6 µM [3] was 13%.
`CCN(CC)c1cc(-c2cccc(NC(C)=O)c2)ncn1` [Ar=3-CH3CONHC6H4; R1=C2H5; R2=C2H5; R3=H, 4-Diethylamino-6-(m-acetylaminopheny)pyrimidine hydrochloride] showed an inhibition in vivo at 60 mg/kg [4, 5] of 40%, an inhibition at 60 µM [3] of 16% and an inhibition at 6 µM [3] of 14%.
For `Cn1c(=O)c2[nH]cnc2n(C)c1=O` [theophylline, reference compound], the inhibition in vivo at 60 mg/kg ([4]; po) was 25%.
For `CCN(CC)c1cc(-c2cccc([N+](=O)[O-])c2)ncn1` [Ar=3-NO2C6H4; R1=C2H5; R2=C2H5; R3=H, 4-Diethylamino-6-(m-nitrophenyl)pyrimidine hydrochloride], the inhibition in vivo at 60 mg/kg [4, 5] was 20%, the inhibition at 600 µM [3] was 99% and the inhibition at 60 µM [3] was 93%. It also gave an inhibition at 6 µM [3] of 25%.
For `CCN(CC)c1cc(-c2ccc(NC(C)=O)cc2)ncn1` [Ar=4-CH3CONHC6H4; R1=C2H5; R2=C2H5; R3=H, 4-diethylamino-6-(p-acetylaminophenyl)pyrimidine], the inhibition in vivo at 60 mg/kg ([4]; po) was 56%.
Work on `CCN(CC)c1cc(-c2cccc(NS(C)(=O)=O)c2)ncn1` yielded an inhibition in vivo at 60 mg/kg [4, 5] of 19%, an inhibition at 600 µM [3] of 95% and an inhibition at 60 µM [3] of 21%. For the same compound, the inhibition at 6 µM [3] was 9%.
`CCCN(CCC)c1cc(-c2cccc(NC(C)=O)c2)ncn1` [4-di-n-propylamino-6-(m-acetylaminophenyl)-pyrimidine] showed an inhibition in vivo at 60 mg/kg [4, 5] of 30%, an inhibition at 600 µM [3] of 88% and an inhibition at 60 µM [3] of 29%. It also gave an inhibition at 6 µM [3] of 22%.
`CCCc1c(-c2cccc(NC(C)=O)c2)ncnc1N(CC)CC` was tested, and the inhibition in vivo at 60 mg/kg ([4]; po) was 29%.
